Reference: patent publication US9089603B2, “Fluorescent imaging with substituted cyanine dyes” (LI-COR, INC., priority 2010, dated 2015)
Blank lines part the entries; values can stand above or below the compound they belong to.

How the values were obtained:
U87GM cells = experiment: Immunocytochemical binding, blocking and carboxylate control assay in U87GM cells; format: cell-based; conditions: tested up to 5 μM, noted above 2 μM
Experimental: RGD (Arg-Gly-Asp), the recognition motif used to bind the integrin receptors, was labeled with compound 17. The characteristics of RGD/17 conjugate and the analogous dye carboxylate 16 were evaluated in a cell-based assay.
Immunocytochemical assays provide a tool for screening a compound for specificity of a labeled agent. Binding assays give valuable information on affinity of the labeled agent to the intended target.
Compound 17 was conjugated to the peptide RGD by the general procedure set forth in Example 32.
The cell lines U87GM and PC3MLN4 were assayed. Assays included binding, blocking, and carboxylate control. Serial dilutions of compound 16 were prepared at concentrations of 200-6.25 nM. Blocking was accomplished with unlabeled RGD at concentrations of 10-0.31 μM with the addition of 200 nM compound 17-RGD conjugates in all test wells. The compound 16 was evaluated as a dye control for non-specific binding at relatively high levels from 5-0.16 μM with U87GM cells and 1-0.002 μM with PC3 cells.
In the second round of testing with U87GM cells, concentrations of unlabeled RGD and compound 17/RGD were increased (FIGS. 8A and 8B). Binding assay concentrations utilized 0.8-400 nM while the blocking assay used 0.06-30 μM unlabeled RGD with an addition of 200 nM 17/RGD.

[1] = In vivo clearance imaging in nude mice (Pearl Impulse); conditions: 1 nmole; for Total (signal): 800 channel
Experimental: Two nude mice were injected with 1 nmole of either compound 16 or IRDye 800CW carboxylate. They were then imaged longitudinally over the next 24 h with the Pearl Impulse imaging system. The results are presented in FIG. 9: in vivo clearance in nudes (FIG. 9A), whole body dorsal views (FIG. 9B), and the rate of clearance (FIG. 9C). The clearance data is presented below in Table 4.

[2] = Absorption wavelength of the cyanine dyes in methanol (halo substitution effect); format: physicochemical; conditions: Table 2
Source text: [table] Design Principle: We analyzed the properties of a dye scaffold and related compounds and the corresponding substitution effects on the excitation and emission wavelengths. The small size of fluorine is unlikely to produce steric effects, therefore, we explored the electronic effects of fluorine and related substitutions. The Hammett equation (σ-value) is an important tool to understand the electronic effects of the substituents, therefore, we explored the correlation of the wavelength (λMeOH) and the σ-value (vide infra): […]

[3] = Comparison of dye emission maxima and quenching; format: physicochemical; conditions: IRDye 800CW samples, excitation 770 nm; for Peak fluorescence emission intensity: PBS pH 7.4; for Percent Quenching: versus dye-linker standard
Experimental: Solutions of dye-linker standards and dye-linker-quencher samples were diluted into PBS buffer (pH 7.4) to give a dye-specific absorbance less than 0.2 AU. The fluorescence spectra of each dilution were then taken at a consistent excitation wavelength (670 nm for HETD and 770 nm for IRDye 800CW). The emission spectra were collected from 680-1000 nm for the HETD samples and 780-1000 nm for the IRDye 800CW samples.

[4] = Photophysical properties (absorption, emission, fluorescence intensity, quantum yield) versus IRDye 800CW; format: physicochemical; conditions: for Fl Intensity of X / Fl Intensity of 800 CW, Odyssey / Fl Intensity of X / Fl Intensity of 800 CW, Fluorimeter: 0.1 μM solutions in 1XPBS; for Abs Max PBS / EmMax PBS: in PBS
[5] = IRDye 800CW used as standard; cited from earlier work

SMILES: CC1(C)C(/C=C/C2=C(Oc3ccc(S(=O)(=O)[O-])cc3)C(=C/C=C3/N(CCCCCC(=O)NCCOCCOCCOCCN=[N+]=[N-])c4ccc(S(=O)(=O)[O-])cc4C3(C)C)/CCC2)=[N+](CCCCS(=O)(=O)[O-])c2ccc(S(=O)(=O)[O-])cc21.[Na+].[Na+].[Na+] [Compound 29, sodium 2-((E)-2-((E)-3-((E)-2-(1-(1-azido-13-oxo-3,6,9-trioxa-12-azaoctadecan-18-yl)-3,3-dimethyl-5-sulfonatoindolin-2-ylidene)ethylidene)-2-(4-sulfonatophenoxy)cyclohex-1-enyl)vinyl)-3,3-dimethyl-1-(4-sulfonatobutyl)-3H-indolium-5-sulfonate]
- Peak fluorescence emission intensity [3]: 1245060

SMILES: CC1(C)C(/C=C/C2=C(Oc3ccc(S(=O)(=O)[O-])cc3)C(=C/C=C3/N(CCCCCC(=O)NCCC(=O)N4Cc5ccccc5C#Cc5ccccc54)c4ccc(S(=O)(=O)[O-])cc4C3(C)C)/CCC2)=[N+](CCCCS(=O)(=O)[O-])c2ccc(S(=O)(=O)[O-])cc21.[Na+].[Na+].[Na+] [Compound 30]
- Peak fluorescence emission intensity [3]: 1203780

SMILES: CC1(C)C(/C=C/C2=C(Oc3ccc(S(=O)(=O)[O-])cc3)C(=C/C=C3/N(CCCCS(=O)(=O)[O-])c4ccc(S(=O)(=O)[O-])cc4C3(C)C)/CCC2)=[N+](CCCCCC(=O)NCCCOCCOCCOCCCN)c2ccc(S(=O)(=O)[O-])cc21.O=C(O)C(F)(F)F.[Na+].[Na+].[Na+] [Compound 32]
- Peak fluorescence emission intensity [3]: 1343900

SMILES: CC1(C)C(/C=C/C2=C(c3cccc(F)c3F)C(=C/C=C3/N(CCCCS(=O)(=O)[O-])c4ccc(S(=O)(=O)[O-])cc4C3(C)C)/CCC2)=[N+](CCCCS(=O)(=O)[O-])c2ccc(S(=O)(=O)[O-])cc21.[Na+].[Na+].[Na+] [Compound 62k]
- Fl Intensity of X / Fl Intensity of 800 CW, Odyssey [4]: 104%
- Fl Intensity of X / Fl Intensity of 800 CW, Fluorimeter [4]: 100%
- Quantum Yield ([4]; Stnd = IRDye 800CW (QY = 0.07)): 0.060
- Abs Max PBS [4]: 773 nm
- EmMax PBS [4]: 790 nm
- Abs Max Methanol ([4]; in methanol): 781 nm

SMILES: CC1(C)C(=CC=C2CCCC(C=CC3=[N+](CCCCCC(=O)[O-])c4ccc(S(=O)(=O)[O-])cc4C3(C)C)=C2Oc2ccc(S(=O)(=O)[O-])cc2)N(CCCCS(=O)(=O)[O-])c2ccc(S(=O)(=O)[O-])cc21.[Na+].[Na+].[Na+].[Na+] [IRDye 800CW, reference compound]
- Fl Intensity of X / Fl Intensity of 800 CW, Odyssey [4]: 100%
- Fl Intensity of X / Fl Intensity of 800 CW, Fluorimeter [4]: 100%
- Abs Max PBS [4]: 775 nm
- EmMax PBS [4]: 790 nm
- Quantum Yield of the standard [5]: 0.07

SMILES: CC1(C)C(/C=C/C2=C(Oc3ccc(S(=O)(=O)[O-])cc3)C(=C/C=C3/N(CCCCS(=O)(=O)[O-])c4ccc(S(=O)(=O)[O-])cc4C3(C)C)/CCC2)=[N+](CCCCCC(=O)NCCOCCOCCOCCOCCOCCOCCOCCOCCOCCOCCOCCN)c2ccc(S(=O)(=O)[O-])cc21.O=C(O)C(F)(F)F.[Na+].[Na+].[Na+] [IRDye 800CW-PEG11-NH2]
- Peak fluorescence emission intensity [3]: 1272820

Further lines, with some results ahead:

- Total (signal) ([1]; 1 Min): 109682.80
- Total (signal) ([1]; 17 Min): 282046.59
- Total (signal) ([1]; 45 Min): 286573.94
- Total (signal) ([1]; 71 Min): 266647.59
- Total (signal) ([1]; 190 Min): 139736.97
- Total (signal) ([1]; 276 Min): 76493.30
- Total (signal) ([1]; 1435 Min): 1652.69
- Clearance in vivo ([1]; nude mice, imaged over 24 h): good clearance
- λMeOH [2]: 785 nm
SMILES: CC1(C)C(/C=C/C2=C(c3c(F)cc(F)cc3F)C(=C/C=C3/N(CCCS(=O)(=O)[O-])c4ccc(S(=O)(=O)[O-])cc4C3(C)C)/CC(C(=O)O)C2)=[N+](CCCS(=O)(=O)[O-])c2ccc(S(=O)(=O)[O-])cc21.[Na+].[Na+].[Na+] (stereo not shown) [Compound 16]
- Non-specific binding of the dye component alone (U87GM cells): Relatively high binding

- Peak fluorescence emission intensity [3]: 519267
SMILES: CC1(C)C(/C=C/C2=C(Oc3ccc(S(=O)(=O)[O-])cc3)C(=C/C=C3/N(CCCCS(=O)(=O)[O-])c4ccc(S(=O)(=O)[O-])cc4C3(C)C)/CCC2)=[N+](CCCCCC(=O)NCCCCCCNC(=O)CCCCC[N+]2=C(/C=C/C3=C(c4ccccc4F)C(=C/C=C4/N(CCCS(=O)(=O)[O-])c5ccc(N(CCCS(=O)(=O)[O-])CCCS(=O)(=O)[O-])cc5C4(C)C)/CCC3)C(C)(C)c3c2ccc2cc(S(=O)(=O)[O-])ccc32)c2ccc(S(=O)(=O)[O-])cc21.[Na+].[Na+].[Na+].[Na+].[Na+].[Na+] [Compound 37]
- Percent Quenching [3]: 61.4%

- Peak fluorescence emission intensity [3]: 385983
SMILES: CC1(C)C(/C=C/C2=C(Oc3ccc(S(=O)(=O)[O-])cc3)C(=C/C=C3/N(CCCCS(=O)(=O)[O-])c4ccc(S(=O)(=O)[O-])cc4C3(C)C)/CCC2)=[N+](CCCCCC(=O)NCCCOCCOCCOCCCNC(=O)CCCCC[N+]2=C(/C=C/C3=C(c4ccccc4F)C(=C/C=C4/N(CCCS(=O)(=O)[O-])c5ccc(N(CCCS(=O)(=O)[O-])CCCS(=O)(=O)[O-])cc5C4(C)C)/CCC3)C(C)(C)c3c2ccc2cc(S(=O)(=O)[O-])ccc32)c2ccc(S(=O)(=O)[O-])cc21.[Na+].[Na+].[Na+].[Na+].[Na+].[Na+] [Compound 38]
- Percent Quenching [3]: 71.3%

- Peak fluorescence emission intensity [3]: 438981
SMILES: CC1(C)C(/C=C/C2=C(Oc3ccc(S(=O)(=O)[O-])cc3)C(=C/C=C3/N(CCCCS(=O)(=O)[O-])c4ccc(S(=O)(=O)[O-])cc4C3(C)C)/CCC2)=[N+](CCCCCC(=O)NCCOCCOCCOCCOCCOCCOCCOCCOCCOCCOCCOCCNC(=O)CCCCC[N+]2=C(/C=C/C3=C(c4ccccc4F)C(=C/C=C4/N(CCCS(=O)(=O)[O-])c5ccc(N(CCCS(=O)(=O)[O-])CCCS(=O)(=O)[O-])cc5C4(C)C)/CCC3)C(C)(C)c3c2ccc2cc(S(=O)(=O)[O-])ccc32)c2ccc(S(=O)(=O)[O-])cc21.[Na+].[Na+].[Na+].[Na+].[Na+].[Na+] [Compound 39]
- Percent Quenching [3]: 65.5%
